From paper PMC6707612, “Cyclic-di-GMP binds to histidine kinase RavS to control RavS-RavR phosphotransfer and regulates the bacterial lifestyle transition between virulence and swimming” (PLoS Pathogens, 2019)
Where “and” joins values, the source holds several entries; their conditions need not be identical. Equal values may be shown once.

Experiments:
Assay in all cases: microscale thermophoresis (MST) binding
Conditions in all cases: 20 nM fluorescein-labelled nucleotide, read-out: dissociation constant (Kd)
VgrS = VgrS (Xanthomonas campestris pv. campestris, UniProt Q8P666)
Experimental: (§1) The interaction between c-di-GMP nucleotides and various proteins was measured by using MST with a fluorescein-labelled c-di-GMP (2′-Fluo-AHC-c-di-GMP, abbreviated as fl-c-di-GMP; 2′-Fluo-AHC-c-di-AMP, fl-c-di-AMP; 2′-Fluo-AHC-cGMP, fl-cGMP; Biolog, Germany). These chemicals contain carboxyfluorescein that has excitation and emission wavelengths of 497 nm and 520 nm, respectively, which can be detected directly by a MST instrument. The experiments were performed on a Monolith NT.115 device using standard treated capillaries (NanoTemper Technologies, Germany). The concentration of the particular protein varied from 0.036 to 150 μM with a 2-fold gradient and the concentration of fl-c-di-GMP was constant at 20 nM. Fluorescence intensity due to thermophoresis was recorded using the blue channel optics of the instrument (λex = 470 ± 15 nm, λem = 520 ± 10 nm) during a 30 s period of infrared laser heating at 80% of the maximum laser power, followed by a 5 s cooling period. Measurements were performed in buffer containing 20 mM HEPES, pH 7.5, 150 mM NaCl, 2 mM MgCl2, 2 mM DTT and 0.05% Tween 20. […]
(§2) Supplementary file ppat.1007952.s007.pdf: S7 Fig c-di-GMP specifically binds to RavS to enhance the RavS-RavR phosphotransfer. […] The interactions of RavS^ΔN, RavA, VgrS and RavR^ΔEAL with fl-c-di-GMP were measured by microscale thermophoresis (MST). Twenty nanomolar fluorescein-labelled nucleotides and increasing concentrations of proteins were co-incubated and potential interactions were measured by MST. The dissociation constant (Kd) was determined to estimate the binding affinity. […]
(§3) (b) RavSΔN specifically interacts with fl-c-di-GMP. The interactions of RavSΔN, RavA, VgrS and RavRΔEAL with fl-c-di-GMP were measured by microscale thermophoresis (MST). Twenty nanomolar fluorescein-labelled nucleotide and increasing concentrations of proteins were co-incubated and potential interactions were measured by MST.
(§4) The dissociation constant (Kd) was determined to estimate the binding affinity. […]

RavS^ΔN = molecular target: T1, RavS^ΔN (Xanthomonas campestris pv. campestris, UniProt Q8P9A6)
T1 sequence (Q8P9A6 352-697): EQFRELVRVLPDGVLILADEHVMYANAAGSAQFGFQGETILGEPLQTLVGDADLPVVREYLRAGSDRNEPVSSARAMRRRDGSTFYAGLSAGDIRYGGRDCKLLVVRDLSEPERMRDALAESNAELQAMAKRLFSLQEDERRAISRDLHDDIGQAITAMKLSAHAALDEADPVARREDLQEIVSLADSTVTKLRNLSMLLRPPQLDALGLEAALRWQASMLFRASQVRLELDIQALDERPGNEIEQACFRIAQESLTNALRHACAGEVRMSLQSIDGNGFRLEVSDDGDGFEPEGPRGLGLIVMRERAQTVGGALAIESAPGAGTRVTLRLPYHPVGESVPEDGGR
Experimental: as §1, §2, §3, §4

RavA = RavA (Xanthomonas campestris pv. campestris, UniProt Q8P9A8)
Experimental: as §1, §2, §3, §4

Chain of VgrS (Q8P666 entry or part of it): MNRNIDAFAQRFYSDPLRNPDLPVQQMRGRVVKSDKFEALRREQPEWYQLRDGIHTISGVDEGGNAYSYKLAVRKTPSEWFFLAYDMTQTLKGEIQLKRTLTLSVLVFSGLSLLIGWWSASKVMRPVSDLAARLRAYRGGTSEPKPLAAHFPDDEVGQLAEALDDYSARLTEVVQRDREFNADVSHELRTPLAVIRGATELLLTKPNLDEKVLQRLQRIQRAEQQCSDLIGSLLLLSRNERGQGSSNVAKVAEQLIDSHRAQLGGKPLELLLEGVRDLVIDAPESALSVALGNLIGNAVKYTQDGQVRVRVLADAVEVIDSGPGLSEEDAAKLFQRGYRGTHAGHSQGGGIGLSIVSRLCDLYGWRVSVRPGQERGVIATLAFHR
Chain of RavA (Q8P9A8 entry or part of it): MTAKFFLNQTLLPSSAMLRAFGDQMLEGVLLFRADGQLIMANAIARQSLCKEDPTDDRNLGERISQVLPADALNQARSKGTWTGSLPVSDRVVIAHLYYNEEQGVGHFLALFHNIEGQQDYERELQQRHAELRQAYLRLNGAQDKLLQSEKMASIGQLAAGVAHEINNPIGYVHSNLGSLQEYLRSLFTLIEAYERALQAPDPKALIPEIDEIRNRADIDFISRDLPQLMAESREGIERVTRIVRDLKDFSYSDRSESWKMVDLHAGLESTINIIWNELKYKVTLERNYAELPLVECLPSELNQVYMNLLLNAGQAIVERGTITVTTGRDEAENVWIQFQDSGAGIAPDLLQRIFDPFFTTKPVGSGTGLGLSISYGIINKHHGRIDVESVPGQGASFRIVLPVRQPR

## Nc1nc2c(ncn2[C@@H]2O[C@@H]3COP(=O)(O)O[C@H]4[C@@H](OC(=O)NCCCCCCNC(=O)c5ccc6c(c5)C(=O)OC65c6ccc(O)cc6Oc6cc(O)ccc65)[C@H](n5cnc6c(=O)[nH]c(N)nc65)O[C@@H]4COP(=O)(O)O[C@H]3[C@H]2O)c(=O)[nH]1 [fl-c-di-GMP, 2′-Fluo-AHC-c-di-GMP]
VgrS
  Kd: 88.1 µM and > 80 µM
RavS^ΔN
  Kd: 5.62 ± 0.74 µM
RavA
  Kd: 116 µM and > 80 µM
